This is an account of results in patent US6150390A, “3-amino-1,2-benzoisoxazole derivatives, process for preparation, and use thereof” (Dong Wha Pharm. Ind. Co., Ltd., priority 1997, dated 2000).

Where two headings read alike, the source gives them in different places. Some results are limits rather than exact numbers.

Data set [1] concerns the target T1, LTB-4 receptor (Homo sapiens, UniProt Q15722).
T1 construct: Final neutrophil was dispersed to 3×10^7 cell/ml in HBSS media and used for measuring the antagonizing action for LTB-4 receptor; endogenous in cells; host or cells: neutrophils from human whole blood
The data set is described as follows: Antagonizing action for LTB-4 receptor ([3H]-LTB-4 binding to human neutrophils). The settings on record: for inhibition at 0.01 µM: 10 nM, read-out: Degree of inhibition (%) 10 nM; for inhibition at 0.01 µM / inhibition at 0.1 µM / inhibition at 1 µM: inhibition of selective [3H]-LTB-4 binding, human neutrophils; for inhibition at 0.1 µM: 100 nM, read-out: Degree of inhibition (%) 100 nM; for inhibition at 1 µM: read-out: Degree of inhibition (%) 1 μM. The protocol: Neutrophil was separated from whole blood of human by precipitation using "Dextran T-500", and by the inclined centrifugation with Ficoll/Paque (Pharmacia Co.) Boyum, Scan. J. Clin. Lab. Invest., 21 suppl.
Mixed erythrocyte was removed by hemolysis of hypotonic solution. Final neutrophil was dispersed to 3×10^7 cell/ml in HBSS media and used for measuring the antagonizing action for LTB-4 receptor.
0.5 nM of [^3 H]-LTB-4 (200 Ci/mmol), test sample to measure the antagonizing action for LTB-4 receptor, and cell dispersed in HBSS media was added to 12 mm×75 mm of polyethylene tube (final volume: 200 μl), and left in ice bath for 45 minutes.
To separate [^3 H]-LTB-4 bound to neutrophil and isolated [^3 H]-LTB-4 not bound to neutrophil, the above mixture was filtered through GF/C filter (made by Wattman Co.). Filter paper was washed with pH 7.4 of cold Tris-buffer solution (5 ml) for 3 times, dried, and measured radioactivity. The selective binding of LTB-4 to neutrophil can be detected by the difference between radioactivities without antagonist in case that LTB-4 was totally bound to neutrophil, and that LTB-4 was bound to neutrophil in addition of radioisotope-unlabeled LTB-4 1000 times.

The conditions of data set [2]: reported in the literature; cited from earlier work.
In data set [3] the test system is cells of calvariae of fetal rat (bonelike nodule forming). Description: Bonelike nodule forming in cultured fetal rat calvaria cells. The data set is classed as cell-based. The settings on record: for Area of nodule (mm^2): control 0.12 ± 0.026; for Number of nodule (No.): control 10.04 ± 1.23. How it is done: Approximately 30 of calvariae of fetal rat, removed all the tissue, was dissolved in 5 ml sterilized colagenase (0.1%) and trypsin solution (0.05%) at 37° C. 20 Minutes after dissolving, the released cells were collected, and hereto was added fetal serum to the same amount. This procedure was carried out for 3-6 times in every 20 minutes to collect the isolated cells. Collected cells were separated by centrifugation ([…]) for 5 minutes and it was suspended in α-MEM media, containing 10% (v/v) fetal bovine serum. Collected cells were cultivated in petri dish for 2-3 days, then separated with trypsin, and it were placed in 96 wells to 2.0×10^3 cells/100 μl in each well.
After cultivating the cells for 2-3 days, the media were changed to 5% fetal calf serum, 150 μg/ml ascorbic acid and 5 mM β-glycerophosphate, plus or minus sample (HS-1141). The control was in wells without the sample, and this time was arbitrarily set as […]. Formed nodule was analyzed with image analyzer (Biorad Co., U.S.A.); camcorder (SONY Co.); and microscope (Leitz Co.).

T1 sequence (Q15722 whole entry): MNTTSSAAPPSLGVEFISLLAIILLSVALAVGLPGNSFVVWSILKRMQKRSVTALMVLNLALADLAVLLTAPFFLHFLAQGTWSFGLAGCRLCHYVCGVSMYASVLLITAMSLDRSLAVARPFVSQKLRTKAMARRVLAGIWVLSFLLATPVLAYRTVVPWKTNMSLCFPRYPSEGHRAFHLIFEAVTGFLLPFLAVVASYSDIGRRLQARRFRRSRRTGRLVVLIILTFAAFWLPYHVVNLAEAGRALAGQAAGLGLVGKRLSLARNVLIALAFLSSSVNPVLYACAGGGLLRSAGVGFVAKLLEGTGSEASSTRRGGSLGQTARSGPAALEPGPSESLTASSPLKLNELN

In general, IC50 refers to the concentration at which inhibition is half-maximal. What is called inhibition is the change of the read-out against control, counted positive when it falls. On to `COc1cc(C(=O)N(C(C)C)C(C)C)ccc1OCCCCCOc1ccc(C(=N)N)cc1` [CGS-25019C, reference compound], for which, in data set [1], the IC50 stood at 80 nM, the inhibition at 0.01 µM is 11%, the inhibition at 0.1 µM turned out to be 68% and the inhibition at 1 µM came to 97%. The “toxicity to stimulate stomach and intestine” value in data set [2] was “toxicity to stimulate stomach and intestine”.

For the compound `COc1cc(C(=O)N(C(C)C)C(C)C)ccc1OCCCCCOc1ccc2c(N)noc2c1` [HS-1132, N,N-diisopropyl-4-[5-(3-aminobenzo[d]isoxazol-6-yloxy)pentoxy]-3-methoxybenzamide], in data set [1], the inhibition at 0.01 µM is below 10%, the inhibition at 0.1 µM was 10% and the inhibition at 1 µM was 90%.

As for `COc1cc(C(=O)N(C(C)C)C(C)C)ccc1OCCCCOc1ccc2c(N)noc2c1` [HS-1141, N,N-diisopropyl-4-[4-(3-aminobenzo[d]isoxazol-6-yloxy)butoxy]-3-methoxybenzamide], in data set [3] (10-11 M), the “Area of nodule (mm^2)” value came to 0.342 ± 0.065 mm^2 and the “Number of nodule (No.)” value was 25.67 ± 3.54 No. For the same compound, in data set [3] (10^-8 M), the “Area of nodule (mm^2)” value is given as 0.273 ± 0.019 mm^2 and the “Number of nodule (No.)” value was 22.80 ± 4.71 No. In data set [3] (10^-9 M), the “Area of nodule (mm^2)” value is reported as 0.379 ± 0.068 mm^2 and the “Number of nodule (No.)” value was 24.00 ± 4.04 No. Also, in data set [3] (10^-10 M), the “Area of nodule (mm^2)” value came to 0.320 ± 0.082 mm^2 and the “Number of nodule (No.)” value turned out to be 19.40 ± 1.29 No. Besides, the “increase of remodeling of bonelike nodule” value in data set [3] (from Table II, versus control) was above 2 times. In addition, in data set [1], the inhibition at 0.01 µM was determined as 64%, the inhibition at 0.1 µM was determined as 95% and the inhibition at 1 µM was 99%. For the same compound, the “effect of antagonizing action for LTB-4 receptor compared with CGS-25019C” value in data set [1] (compared with known compound CGS-25019C) is “better”. Besides, the IC50 in data set [1] (concentration of 50% of antagonizing in binding to receptor, read-out: IC50) turned out to be 7 nM.

As for `COc1cc(C(=O)N(C(C)C)C(C)C)ccc1OCCCOc1ccc2c(N)noc2c1` [HS-1151, N,N-diisopropyl-4-[3-(3-aminobenzo[d]isoxazol-6-yloxy)propoxy]-3-methoxybenzamide], in data set [1], the inhibition at 0.01 µM is below 10%, the inhibition at 0.1 µM stood at 37% and the inhibition at 1 µM worked out at 92%.
